This assay deals with P388 leukemia ip, CD2F1 mice, survival T/C. Kind of assay: NCI In Vivo Anticancer Drug Screen. Data for tumor model P388 Leukemia (intraperitoneal) in CD2F1 (CDF1) mice. The note with it: endpoint: median survival time, higher = longer survival. The method, boiled down: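 Mice carrying the transplanted tumor received test compound or vehicle. Survival was recorded in each group, and the value is the treated-group measurement divided by that of the vehicle-treated control group.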

[1] abbreviates: dose: 60.0 mg/kg/injection, schedule: Q01DX005 (ip), vehicle: saline with Tween-80.
Where [2] appears, read: dose: 120.0 mg/kg/injection, schedule: Q01DX005 (ip), vehicle: saline with Tween-80.
Where [3] appears, read: dose: 240.0 mg/kg/injection, schedule: Q01DX005 (ip), vehicle: saline with Tween-80.
[4] abbreviates: dose: 50.0 mg/kg/injection, schedule: Q04DX003 (ip), vehicle: saline with Tween-80.
Setting [5] is: dose: 100.0 mg/kg/injection, schedule: Q04DX003 (ip), vehicle: saline with Tween-80.
[6] abbreviates: dose: 200.0 mg/kg/injection, schedule: Q01DX009 (ip), vehicle: saline.
Where [7] appears, read: dose: 400.0 mg/kg/injection, schedule: Q01DX009 (ip), vehicle: saline with Tween-80.
The mark [8] stands for this setting: dose: 200.0 mg/kg/injection, schedule: Q01DX005 (ip), vehicle: saline.

Molecules are shown by their SMILES. Values joined by “and” are separate entries in the source; they are usually repeats but may differ in a detail not shown here. Identical values can stand only once. Toxic doses and inconclusive results are not listed.

Regarding `CNC(=O)C(NC(=O)C(NC(=O)c1c2nc3c(C(=O)NC(C(=O)NC(C(=O)NC)C(C)C)C(C)O)ccc(C)c3oc-2c(C)c(=O)c1N)C(C)O)C(C)C` (stereo unspecified), the T/C is 101 % of control (dose: 0.05 mg/kg/injection, schedule: Q01DX009 (ip), vehicle: water); 110 % of control (dose: 0.1 mg/kg/injection, schedule: Q01DX009 (ip), vehicle: water); 100 % of control (dose: 0.2 mg/kg/injection, schedule: Q01DX009 (ip), vehicle: water); 99 % of control (dose: 0.4 mg/kg/injection, schedule: Q01DX009 (ip), vehicle: water); 108 % of control (dose: 0.8 mg/kg/injection, schedule: Q01DX009 (ip), vehicle: water); 99 % of control and 90 % of control (dose: 1.6 mg/kg/injection, schedule: Q01DX009 (ip), vehicle: water). For the same compound, the T/C reads like this: (dose: 3.2 mg/kg/injection, schedule: Q01DX009 (ip), vehicle: water) 97 % of control; (dose: 6.4 mg/kg/injection, schedule: Q01DX009 (ip), vehicle: water) 97 % of control; (dose: 12.8 mg/kg/injection, schedule: Q01DX009 (ip), vehicle: water) 99 % of control.

As to `CNC(=O)c1c(-c2ccc(F)cc2)noc1C`, the T/C reads like this: under setting [1], 103 % of control; under setting [2], 100 % of control; under setting [3], 103 % of control.

`CN(CC#CC#CCN(C)c1ccccc1)c1ccccc1`: the T/C reads like this: (dose: 50.0 mg/kg/injection, schedule: Q01DX005 (ip), vehicle: saline with Tween-80) 102 % of control; (dose: 100.0 mg/kg/injection, schedule: Q01DX005 (ip), vehicle: saline with Tween-80) 102 % of control; (dose: 200.0 mg/kg/injection, schedule: Q01DX005 (ip), vehicle: saline with Tween-80) 102 % of control.

For `CCOc1ccc(Cc2nc3c([nH]2)c(=O)n(C)c(=O)n3C)cc1OCC`, the T/C under setting [4] is 104 % of control; the T/C under setting [5] is 103 % of control; the T/C (dose: 200.0 mg/kg/injection, schedule: Q04DX003 (ip), vehicle: saline with Tween-80) is 113 % of control and 95 % of control.

With `c1ccc(-c2nc3cc4ccccc4cc3nc2-c2ccccc2)cc1`, the T/C (dose: 50.0 mg/kg/injection, schedule: Q01DX005 (ip), vehicle: Klucel (hydroxypropylcellulose) (HPC)) is 105 % of control; the T/C (dose: 100.0 mg/kg/injection, schedule: Q01DX005 (ip), vehicle: Klucel (hydroxypropylcellulose) (HPC)) was 100 % of control; the T/C (dose: 200.0 mg/kg/injection, schedule: Q01DX005 (ip), vehicle: Klucel (hydroxypropylcellulose) (HPC)) is 99 % of control.

With `O=C(O)CN(CC(=O)O)C1CC1N(CC(=O)O)CC(=O)O` (stereo unspecified), the T/C reads like this: (dose: 50.0 mg/kg/injection, schedule: Q01DX009 (ip), vehicle: saline) 97 % of control; (dose: 100.0 mg/kg/injection, schedule: Q01DX001 (ip), vehicle: saline) 96 % of control; (dose: 100.0 mg/kg/injection, schedule: Q01DX009 (ip), vehicle: saline) 100 % of control; (dose: 200.0 mg/kg/injection, schedule: Q01DX001 (ip), vehicle: saline) 100 % of control; under setting [6], 97 % of control; (dose: 400.0 mg/kg/injection, schedule: Q01DX001 (ip), vehicle: saline) 97 % of control.

Turning to `OC1(c2ccc(F)cc2)CCNCC1`, the T/C by setting is: (dose: 60.0 mg/kg/injection, schedule: Q01DX005 (ip), vehicle: Klucel (hydroxypropylcellulose) (HPC)) 104 % of control; (dose: 120.0 mg/kg/injection, schedule: Q01DX005 (ip), vehicle: Klucel (hydroxypropylcellulose) (HPC)) 92 % of control.

As to `C/C(CC(c1ccccc1)N1CCc2ccccc2C1)=N/O` (stereo unspecified), the T/C runs as follows: (dose: 100.0 mg/kg/injection, schedule: Q01DX009 (ip), vehicle: saline with Tween-80) 100 % of control; (dose: 200.0 mg/kg/injection, schedule: Q01DX009 (ip), vehicle: saline with Tween-80) 100 % of control; under setting [7], 100 % of control.

On to `CC1OC(=O)C(C)C1=O` (stereo unspecified), for which the T/C runs as follows: (dose: 50.0 mg/kg/injection, schedule: Q01DX005 (ip), vehicle: saline) 104 % of control; (dose: 100.0 mg/kg/injection, schedule: Q01DX005 (ip), vehicle: saline) 92 % of control; under setting [8], 113 % of control.

As to `C[Si](C)(C)N1C(=O)c2ccccc2C1=O`, the T/C is 100 % of control (dose: 50.0 mg/kg/injection, schedule: Q01DX009 (ip), vehicle: Klucel (hydroxypropylcellulose) (HPC)); 115 % of control (dose: 100.0 mg/kg/injection, schedule: Q01DX009 (ip), vehicle: Klucel (hydroxypropylcellulose) (HPC)); 107 % of control (dose: 200.0 mg/kg/injection, schedule: Q01DX009 (ip), vehicle: Klucel (hydroxypropylcellulose) (HPC)).

With `CN1Cc2c(cc(CN3CCCCC3)n2C)C(c2ccc(Br)cc2)C1` (stereo unspecified), the T/C runs as follows: (dose: 15.0 mg/kg/injection, schedule: Q01DX005 (ip), vehicle: saline with Tween-80) 100 % of control; (dose: 30.0 mg/kg/injection, schedule: Q01DX005 (ip), vehicle: saline with Tween-80) 100 % of control; under setting [1], 101 % of control.

On to `Cc1ccc(C)c(NC(=O)CCC(=O)CC(=O)c2ccncc2)c1`, for which the T/C is, setting by setting: under setting [1], 107 % of control; under setting [2], 107 % of control; under setting [3], 105 % of control.

Consider `CNC(=O)Oc1cccc(NC(=S)SC)c1`, for which the T/C runs as follows: (dose: 12.5 mg/kg/injection, schedule: Q04DX003 (ip), vehicle: saline with Tween-80) 106 % of control; (dose: 25.0 mg/kg/injection, schedule: Q04DX003 (ip), vehicle: saline with Tween-80) 104 % of control; under setting [4], 100 % of control; under setting [5], 104 % of control.

`Nc1ccn(C2OC(CO)C(O)C2O)c(=O)n1` (stereo unspecified): the T/C was 160 % of control (dose: 2.0 mg/kg/injection, schedule: Q01DX009 (ip), vehicle: saline); 160 % of control (dose: 10.0 mg/kg/injection, schedule: Q01DX005 (ip), vehicle: saline); 190 % of control (dose: 60.0 mg/kg/injection, schedule: Q01DX005 (ip), vehicle: saline); 120 % of control (dose: 100.0 mg/kg/injection, schedule: Q04DX002 (ip), vehicle: saline); 170 % of control and 250 % of control (dose: 128.0 mg/kg/injection, schedule: Q01DX009 (ip), vehicle: saline); 200 % of control under setting [8]. Moreover, the T/C under setting [6] is 100 % of control; the T/C (dose: 200.0 mg/kg/injection, schedule: Q04DX003 (ip), vehicle: saline) was 100 % of control; the T/C (dose: 324.0 mg/kg/injection, schedule: Q04DX003 (ip), vehicle: saline) is 190 % of control; the T/C under setting [7] is 100 % of control; the T/C (dose: 400.0 mg/kg/injection, schedule: Q01DX009 (ip), vehicle: saline) is 99 % of control and 110 % of control; the T/C (dose: 500.0 mg/kg/injection, schedule: Q04DX003 (ip), vehicle: saline) is 200 % of control. Also, the T/C reads like this: (dose: 512.0 mg/kg/injection, schedule: Q01DX009 (ip), vehicle: saline) 90 % of control; (dose: 800.0 mg/kg/injection, schedule: Q01DX009 (ip), vehicle: saline with Tween-80) 99 % of control; (dose: 800.0 mg/kg/injection, schedule: Q01DX009 (ip), vehicle: saline) 110 % of control and 91 % of control; (dose: 900.0 mg/kg/injection, schedule: Q04DX003 (ip), vehicle: saline) 210 % of control; (dose: 1200.0 mg/kg/injection, schedule: Q01DX009 (ip), vehicle: saline with Tween-80) 100 % of control; (dose: 1600.0 mg/kg/injection, schedule: Q01DX009 (ip), vehicle: saline) 91 % of control. The T/C runs as follows: (dose: 1600.0 mg/kg/injection, schedule: Q04DX002 (ip), vehicle: saline) 120 % of control; (dose: 2400.0 mg/kg/injection, schedule: Q01DX009 (ip), vehicle: saline with Tween-80) 90 % of control.

As to `Cc1cc(N/N=C/c2cccc3ccccc23)c2cc3c(cc2n1)OCO3`, the T/C is, setting by setting: (dose: 6.25 mg/kg/injection, schedule: Q01DX005 (ip), vehicle: Klucel (hydroxypropylcellulose) (HPC)) 95 % of control; (dose: 12.5 mg/kg/injection, schedule: Q01DX005 (ip), vehicle: Klucel (hydroxypropylcellulose) (HPC)) 100 % of control; (dose: 25.0 mg/kg/injection, schedule: Q01DX005 (ip), vehicle: Klucel (hydroxypropylcellulose) (HPC)) 112 % of control.
